According to patent US7256257B2, “Pentapeptide compounds and uses related thereto” (priority 2001, dated 2007):
Where a SMILES comes first, the peptide text is derived from it. [ ]: non-standard residue; d: D form. The star is where a group is joined. Dolaproine = CO[C@@H]([C@@H]1CCCN1)[C@@H](C)C(=O)O; Dil = CC[C@H](C)[C@H](NC)[C@@H](CC(=O)O)OC; NMe2Val = CC(C)[C@@H](C(=O)*)N(C)C; dPhe(ol) = N[C@@H](CO)Cc1ccccc1; Phe(ol) = N[C@H](CO)Cc1ccccc1

Key:
[1] = test system: 3396 human breast carcinoma cells; assay: In vitro cytotoxicity, XTT, 3396 cells; format: cell-based; conditions: 3396 breast, exposed 1 hr, washed, XTT 96 hr later
Method: (§1) In vitro cytotoxicity experiments were performed to compare the activities of auristatin E (29a) and drugs of this invention. 3396 and Karpas cells were exposed to the drug for 1 and 2 hr respectively. The cells were washed, and cytotoxicity was determined 96 hr later using XTT to measure mitochondrial integrity.

[2] = test system: Kato III human gastric carcinoma cells; assay: In vitro cytotoxicity, 3H-thymidine incorporation, Kato III cells; format: cell-based; conditions: exposed 1-2 hours, 3H-thymidine incorporation 72 hours later
Method: (§2) To obtain the results shown in Table 4, the cells were exposed to drugs for 1-2 hours, and the cytotoxic effects were determined 72 hours later by the incorporation of ^3H-thymidine into DNA. Antigen expression was determined by flow cytometry and is expressed in terms of mean fluorescence intensity (MFI).
(§3) The cytotoxic effects of the mAb-S-36 conjugates on L2987 human lung adenocarcinoma cells (strongly BR96 antigen positive, weakly S2C6 antigen positive) and on Kato III human gastric carcinoma cells, (strongly BR96 antigen positive, S2C6 antigen negative) are shown in FIGS. 18A, 18B and 18C. These figures show the in vitro cytotoxicity of drugs and mAb-drug conjugates on (FIG. 18A) and (FIG. 18B) L2987 human lung adenoma cells, and (FIG. 18A) and (FIG. 18C) Kato III human gastric carcinoma cells. L2987 cells are positive for the antigens recognized by BR96 (LeY) and S2C6 (CD40), but express the LeY antigen at higher levels. Kato III cells are positive for the LeY antigen and negative for CD40. Cells were exposed to the conjugates for 2 hours, washed, and the cytotoxic effects were determined 3 days later using a thymidine incorporation assay.

L540 Hodgkin's lymphoma = assay: In vitro cytotoxicity, 3H-thymidine incorporation, L540 cells; format: cell-based; conditions: 3H-thymidine incorporation 72 hours later
Method: as §2
(§4) These figures show the cytotoxic effects of auristatin E and auristatin E-containing conjugates on L2987 human lung adenocarcinoma cells (FIG. 19A); and various hematologic cell lines treated with AC10-S-40a (FIG. 19B). In all assays, cells were exposed to the drugs for 2 hours, washed, and the cytotoxic activities were measured 72 hours later using ^3H-thymidine incorporation.

[3] = test system: Daudi Burkitt's lymphoma cells; assay: In vitro cytotoxicity, 3H-thymidine incorporation, Daudi cells; format: cell-based; conditions: for IC50: Daudi Burkitt's lymphoma, exposed 1-2 hours, 3H-thymidine incorporation 72 hours later
Method: as §2, §4

AU565 (breast) = assay: In vitro cytotoxicity, 3H-thymidine incorporation, AU565 cells; format: cell-based; conditions: exposed 1-2 hours, 3H-thymidine incorporation 72 hours later
Method: as §2

Karpas 299 (ALCL) = assay: In vitro cytotoxicity, XTT, Karpas 299 cells; format: cell-based; conditions: exposed 2 hr, washed, XTT 96 hr later
Method: as §1

SKBR3 (breast) = assay: In vitro cytotoxicity, 3H-thymidine incorporation, SKBR3 cells; format: cell-based; conditions: 3H-thymidine incorporation 72 hours later
Method: as §2

[4] = test system: L2987 human lung adenocarcinoma cells; assay: In vitro cytotoxicity, 3H-thymidine incorporation, L2987 cells; format: cell-based; conditions: for IC50: L2987 lung, exposed 1-2 hours, 3H-thymidine incorporation 72 hours later
Method: as §2, §3, §4

IM-9 (Multiple myeloma) = assay: In vitro cytotoxicity, 3H-thymidine incorporation, IM-9 cells; format: cell-based; conditions: exposed 1-2 hours, 3H-thymidine incorporation 72 hours later
Method: as §2, §4

[5] = test system: Karpas anaplastic large cell lymphoma; assay: In vitro cytotoxicity, 3H-thymidine incorporation, Karpas cells; format: cell-based; conditions: Karpas ALCL; exposed 1-2 hours, 3H-thymidine incorporation 72 hours later
Method: as §2, §4

L428 Hodgkin's lymphoma = assay: In vitro cytotoxicity, 3H-thymidine incorporation, L428 cells; format: cell-based; conditions: 3H-thymidine incorporation 72 hours later
Method: as §2, §4

[6] = test system: purified esterases from guinea pig livers; assay: Exposure to purified liver esterases (guinea pig); format: in vitro ADME; conditions: prolonged exposure
[7] = test system: purified esterases from rhesus monkey livers; assay: Exposure to purified liver esterases (rhesus monkey); format: in vitro ADME; conditions: prolonged exposure
[8] = test system: purified esterases from rabbit livers; assay: Exposure to purified liver esterases (rabbit); format: in vitro ADME; conditions: prolonged exposure
[9] = test system: purified esterases from human livers; assay: Exposure to purified liver esterases (human); format: in vitro ADME; conditions: prolonged exposure
Stability in human serum = format: in vitro ADME; conditions: 120 hours incubation at 37 C
[10] = Homo sapiens, Breast carcinoma cell

With `CO[C@H]([C@@H](C)C(=O)N[C@H](C)[C@@H](OC(=O)CC(C)=O)c1ccccc1)[C@@H]1CCCN1C(=O)C[C@@H](OC)[C@H](C)N(C)C(=O)[C@@H](NC(=O)[C@H](C(C)C)N(C)C)C(C)C` [Compound 52, Acetoacetic Ester of Auristatin E] the IC50 [1, 10] was 20 nM.

Work on `CC[C@H](C)[C@@H]([C@@H](CC(=O)N1CCC[C@H]1[C@H](OC)[C@@H](C)C(=O)N[C@@H](CO)Cc1ccccc1)OC)N(C)C(=O)[C@@H](NC(=O)[C@H](C(C)C)N(C)C)C(C)C` [Compound 33] (NMe2Val-V[Dil][Dolaproine][dPhe(ol)]) yielded an IC50 [1, 10] of 70 nM.

With `CC[C@H](C)[C@@H]([C@@H](CC(=O)N1CCC[C@H]1[C@H](OC)[C@@H](C)C(=O)N[C@@H](COC(=O)c1ccc(C(C)=O)cc1)Cc1ccccc1)OC)N(C)C(=O)[C@@H](NC(=O)[C@H](C(C)C)N(C)C)C(C)C` [Compound 49] the IC50 [1, 10] was 34 nM.

Work on `CC[C@H](C)[C@@H]([C@@H](CC(=O)N1CCC[C@H]1[C@H](OC)[C@@H](C)C(=O)N[C@H](CO)Cc1ccccc1)OC)N(C)C(=O)[C@@H](NC(=O)[C@H](C(C)C)N(C)C)C(C)C` [Compound 32] (NMe2Val-V[Dil][Dolaproine][Phe(ol)]) yielded an IC50 [1, 10] of 4.5 nM.

Work on `CC[C@H](C)[C@@H]([C@@H](CC(=O)N1CCC[C@H]1[C@H](OC)[C@@H](C)C(=O)N[C@H](C)[C@@H](O)c1ccccc1)OC)N(C)C(=O)[C@@H](NC(=O)[C@H](C(C)C)N(C)C)C(C)C` [Compound 29a, N,N-dimethyl-L-valyl-N-[(1S,2R)-4-[(2S)-2-[(1R,2R)-3-[[(1R,2S)-2-hydroxy-1-methyl-2-phenylethyl]amino]-1-methoxy-2-methyl-3-oxopropyl]-1-pyrrolidinyl]-2-methoxy-1-[(1S)-1-methylpropyl]-4-oxobutyl]-N-methyl-L-valinamide, reference compound] yielded an IC50 ([2]; Homo sapiens) of 0.7 nM, an IC50 (L540 Hodgkin's lymphoma; Homo sapiens, L-540, exposed 1-2 hours) of 1.5 nM and an IC50 ([3]; Homo sapiens) of 0.9 nM. For the same compound, the IC50 (AU565 (breast); Homo sapiens) was 1.5 nM, the IC50 (Karpas 299 (ALCL); Homo sapiens) was 1.2 nM and the IC50 (SKBR3 (breast); Homo sapiens, SK-BR-3, exposed 1-2 hours) was 1.5 nM. It also gave an IC50 ([4]; Homo sapiens) of 1 nM, an IC50 (IM-9 (Multiple myeloma); Homo sapiens) of 3.5 nM and an IC50 [1, 10] of 6 nM. The IC50 [5] was 1.2 nM and the IC50 (L428 Hodgkin's lymphoma; Homo sapiens, L-428, exposed 1-2 hours) was 1.5 nM.

In the case of `CC[C@H](C)[C@@H]([C@@H](CC(=O)N1CCC[C@H]1[C@H](OC)[C@@H](C)C(=O)N[C@@H](C)[C@H](OC(=O)c1ccc(C(C)=O)cc1)c1ccccc1)OC)N(C)C(=O)[C@@H](NC(=O)[C@H](C(C)C)N(C)C)C(C)C` [Compound 39a, 4-acetyl-benzoic Ester of Auristatin E], the “conversion to auristatin E (29a) by liver esterases” value (shortened to “conversion to auristatin E (29a)”) [6] is reported as “failed to demonstrate any conversion”, the “conversion to auristatin E (29a)” value [7] is reported as “failed to demonstrate any conversion” and the IC50 [2] is reported as 5 nM. For the same compound, the IC50 (L540 Hodgkin's lymphoma; exposed 1-2 hours) was 16 nM, the “times less cytotoxic than auristatin E (29a)” value ([3]; Daudi Burkitt's lymphoma cells) was “approximately 17 times” and the IC50 [3] was 15 nM. For the same compound, the “conversion to auristatin E (29a)” value [8] was “failed to demonstrate any conversion”, the “conversion to auristatin E (29a)” value [9] was “failed to demonstrate any conversion” and the IC50 (AU565 (breast)) was 6 nM. For the same compound, the IC50 (Karpas 299 (ALCL)) was 4 nM, the IC50 (SKBR3 (breast); exposed 1-2 hours) was 6 nM and the “cytotoxicity relative to auristatin E (29a)” value ([4]; L2981 cells (so in the source)) was “as cytotoxic as auristatin E (29a)”. The IC50 [4] was 0.9 nM, the IC50 (IM-9 (Multiple myeloma)) was 50 nM and the “hydrolysis in human serum” value (Stability in human serum) was “no detectable hydrolysis”. For the same compound, the IC50 [1] was 16 nM, the IC50 [5] was 13 nM and the IC50 (L428 Hodgkin's lymphoma; exposed 1-2 hours) was 13 nM.

Compound `CC[C@H](C)[C@@H]([C@@H](CC(=O)N1CCC[C@H]1[C@H](OC)[C@@H](C)C(=O)N[C@H](C)[C@@H](OC(=O)CCCCC(=O)c1ccccc1)c1ccccc1)OC)N(C)C(=O)[C@@H](NC(=O)[C@H](C(C)C)N(C)C)C(C)C` [Compound 50, 5-benzoylvaleric Ester of Auristatin E] has an IC50 [1, 10] of 3 nM.

Work on `CC[C@H](C)[C@@H]([C@@H](CC(=O)N1CCC[C@H]1[C@H](OC)[C@@H](C)C(=O)N[C@H](COC(=O)c1ccc(C(C)=O)cc1)Cc1ccccc1)OC)N(C)C(=O)[C@@H](NC(=O)[C@H](C(C)C)N(C)C)C(C)C` [Compound 47] yielded an IC50 (Karpas 299 (ALCL); Homo sapiens) of 0.075 nM and an IC50 [1, 10] of 0.35 nM.

`CC[C@H](C)[C@@H]([C@@H](CC(=O)N1CCC[C@H]1[C@H](OC)[C@@H](C)C(=O)N[C@H](COc1ccc(C(C)=O)cc1)Cc1ccccc1)OC)N(C)C(=O)[C@@H](NC(=O)[C@H](C(C)C)N(C)C)C(C)C` [Compound 58] showed an IC50 [1, 10] of 2.5 nM.
